≈ marks a conversion by molar mass, not a printed value. Where two headings read alike, the source gives them in different places.
Key:
[1] = molecular target: T1, beta-catenin/TCF4 engagement (Homo sapiens, UniProt P35222); test: Nano-BRET target engagement assay (B-cat-Halo & TCF4-Luc in HEK293 cells); assay type: cell-based; settings: absolute IC50; read-out: NanoBRET Abs IC50
T1 construct: expressed in transfected cells; host or cells: HEK293
T1 sequence (P35222 1-781): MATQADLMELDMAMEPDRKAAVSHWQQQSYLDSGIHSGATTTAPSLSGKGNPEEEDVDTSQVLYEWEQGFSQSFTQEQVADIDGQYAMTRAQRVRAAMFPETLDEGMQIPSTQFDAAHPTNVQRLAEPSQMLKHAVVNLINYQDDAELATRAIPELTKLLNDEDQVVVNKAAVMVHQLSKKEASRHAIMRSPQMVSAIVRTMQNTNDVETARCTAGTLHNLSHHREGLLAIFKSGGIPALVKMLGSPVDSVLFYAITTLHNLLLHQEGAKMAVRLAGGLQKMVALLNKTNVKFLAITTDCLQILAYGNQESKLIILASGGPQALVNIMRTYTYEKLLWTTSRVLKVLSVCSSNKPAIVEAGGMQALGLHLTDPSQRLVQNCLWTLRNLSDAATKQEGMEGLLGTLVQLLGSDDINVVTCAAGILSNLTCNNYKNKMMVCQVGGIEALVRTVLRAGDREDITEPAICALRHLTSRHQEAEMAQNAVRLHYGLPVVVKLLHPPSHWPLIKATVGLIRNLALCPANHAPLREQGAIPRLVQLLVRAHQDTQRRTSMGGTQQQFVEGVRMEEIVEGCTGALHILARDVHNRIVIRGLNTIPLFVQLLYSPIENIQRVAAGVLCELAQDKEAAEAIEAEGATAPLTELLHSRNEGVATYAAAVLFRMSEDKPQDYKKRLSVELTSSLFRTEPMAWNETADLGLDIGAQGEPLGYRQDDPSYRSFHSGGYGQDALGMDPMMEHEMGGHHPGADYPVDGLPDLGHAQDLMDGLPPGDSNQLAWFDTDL

[2] = molecular target: T2, full-length beta-Catenin (Uniprot ID P35222) (Homo sapiens, UniProt P35222); test: Fluorescence polarization IC50 (beta-catenin / 5FAM-TCF4 10-53 competition); assay type: binding; settings: fluorescence polarization; read-out: beta-Catenin FP IC50
T2 construct: 10 nM full-length beta-Catenin (Uniprot ID P35222)
T2 sequence (P35222 1-781): T1 sequence (P35222 1-781)

[3] = Solubility in PBS; assay type: physicochemical
How it was run: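 Read-out is the HPLC peak area of the supernatant from ultracentrifuged PBS solution, scaled against a 50 μM peptide DMSO injection; value reported as [(PBS area)/(DMSO area)]*50 uM.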

Compound: CC(=O)N1CCC[C@]12CC=CCCCC1(CCCC=CCCCOC(=O)N3CC[C@@](C(=O)N[C@@H](Cc4ccccc4Cl)C(=O)N[C@@H](Cc4csc5ccccc45)C(=O)N[C@@H](CCC(N)=O)C(N)=O)(C3)NC(=O)[C@H](CCCCNC(C)C)NC(=O)[C@H](Cc3ccccc3)NC(=O)[C@H](C)NC(=O)[C@H](C)NC(=O)[C@H](CCC(=O)O)NC(=O)[C@H](CC(=O)O)NC1=O)NC(=O)[C@H](CC(C)(C)C)NC(=O)[C@H](CC(=O)O)NC2=O (stereo partly drawn) [I-1281, Ac-PL3-Asp-Npg-B5-Asp-Glu-Ala-Ala-Phe-iPrLys-PyrS2-2C1F-BztA-Gln-NH2]
- IC50 [1]: 22.2 µM
- IC50 [2]: 0.01 µM
- Solubility ([3]; Solubility (uM)): 14 µM (≈ 28.2 µg/mL)

Compound: CC(=O)N1CCC[C@]12CC=CCCCC1(CCCC=CCCCOC(=O)N3CC[C@@](C(=O)N[C@@H](Cc4ccccc4Cl)C(=O)N[C@@H](Cc4csc5ccccc45)C(=O)N[C@H](C(N)=O)[C@@H](C)O)(C3)NC(=O)[C@H](CCCCNC(C)C)NC(=O)[C@H](Cc3ccccc3)NC(=O)[C@H](C)NC(=O)[C@H](C)NC(=O)[C@H](CCC(=O)O)NC(=O)[C@H](CC(=O)O)NC1=O)NC(=O)[C@H](CC(C)(C)C)NC(=O)[C@H](CC(=O)O)NC2=O (stereo partly drawn) [I-1282, Ac-PL3-Asp-Npg-B5-Asp-Glu-Ala-Ala-Phe-iPrLys-PyrS2-2C1F-BztA-Thr-NH2]
- IC50 [1]: 43.1 µM
- IC50 [2]: 0.034 µM
- Solubility ([3]; Solubility (uM)): 24 µM (≈ 47.8 µg/mL)

Compound: CC(=O)N1CCC[C@]12CC=CCCCC1(CCCC=CCCCOC(=O)N3CC[C@@](C(=O)N[C@@H](Cc4ccccc4Cl)C(=O)N[C@@H](Cc4csc5ccccc45)C(=O)N[C@@H](CC(C)C)C(N)=O)(C3)NC(=O)[C@H](CCCCNC(C)C)NC(=O)[C@H](Cc3ccccc3)NC(=O)[C@H](C)NC(=O)[C@H](C)NC(=O)[C@H](CCC(=O)O)NC(=O)[C@H](CC(=O)O)NC1=O)NC(=O)[C@H](CC(C)(C)C)NC(=O)[C@H](CC(=O)O)NC2=O (stereo partly drawn) [I-1283, Ac-PL3-Asp-Npg-B5-Asp-Glu-Ala-Ala-Phe-iPrLys-PyrS2-2C1F-BztA-Leu-NH2]
- IC50 [1]: 38.6 µM
- IC50 [2]: 0.026 µM
- Solubility [3]: 10 µM (≈ 20 µg/mL)

Compound: CC(=O)N1CCC[C@]12CC=CCCCC1(CCCC=CCCCOC(=O)N3CC[C@@](C(=O)N[C@@H](Cc4ccsc4)C(=O)N[C@@H](Cc4csc5ccccc45)C(=O)N[C@H](CO)[C@@H](C)O)(C3)NC(=O)[C@H](Cc3ccccc3)NC(=O)[C@H](Cc3ccccc3)NC(=O)[C@H](C)NC(=O)[C@H](C)NC(=O)[C@H](CC(=O)O)NC(=O)[C@H](CC(=O)O)NC1=O)NC(=O)[C@H](CC(C)(C)C)NC(=O)[C@H](CC(=O)O)NC2=O (stereo partly drawn) [I-1303, Ac-PL3-Asp-Npg-B5-Asp-Asp-Ala-Ala-Phe-Phe-PyrS2-3Thi-BztA-Thro1]
- IC50 [1]: 9.1 µM
- IC50 [2]: 0.086 µM
- Solubility ([3]; Solubility (uM)): 28 µM (≈ 53.5 µg/mL)

Compound: CC(=O)N1CCC[C@]12CC=CCCCC1(CCCC=CCCCOC(=O)N3CC[C@@](C(=O)N[C@@H](Cc4ccsc4)C(=O)N[C@@H](Cc4csc5ccccc45)C(=O)N[C@H](CO)[C@@H](C)O)(C3)NC(=O)[C@H](CC(C)C)NC(=O)[C@H](Cc3ccccc3)NC(=O)[C@H](C)NC(=O)[C@H](C)NC(=O)[C@H](CC(=O)O)NC(=O)[C@H](CC(=O)O)NC1=O)NC(=O)[C@H](CC(C)(C)C)NC(=O)[C@H](CC(N)=O)NC2=O (stereo partly drawn) [I-1304, Ac-PL3-Asn-Npg-B5-Asp-Asp-Ala-Ala-Phe-Leu-PyrS2-3Thi-BztA-Thro1]
- IC50 [1]: 33.6 µM
- IC50 [2]: 0.031 µM
- Solubility [3]: 10 µM (≈ 18.8 µg/mL)

Compound: CC(=O)N1CCC[C@]12CC=CCCCC1(CCCC=CCCCOC(=O)N3CC[C@@](C(=O)N[C@@H](Cc4ccsc4)C(=O)N[C@@H](Cc4csc5ccccc45)C(=O)N[C@H](CO)[C@@H](C)O)(C3)NC(=O)[C@H](CCO)NC(=O)[C@H](Cc3ccccc3)NC(=O)[C@H](C)NC(=O)[C@H](C)NC(=O)[C@H](CC(=O)O)NC(=O)[C@H](CC(=O)O)NC1=O)NC(=O)[C@H](CC(C)(C)C)NC(=O)[C@H](CC(=O)O)NC2=O (stereo partly drawn) [I-1305, Ac-PL3-Asp-Npg-B5-Asp-Asp-Ala-Ala-Phe-Hse-PyrS2-3Thi-BztA-Thro1]
- IC50 [1]: 9.7 µM
- IC50 [2]: 0.006 µM
- Solubility ([3]; Solubility (uM)): 49 µM (≈ 91.4 µg/mL)

Reference: US20240116985A1, “STAPLED PEPTIDES AND METHODS THEREOF” (priority 2020, published 2024)
